Source: publication PMC6367362, “MD001, a Novel Peroxisome Proliferator-activated Receptor α/γ Agonist, Improves Glucose and Lipid Metabolism” (Scientific Reports, 2019)

Tested on: HepG2 cells
Assay: In vitro glucose consumption assay, HepG2
Assay type: cell-based, human
Conditions: 10, 50 μM, 24 h
Method: Figure 3 MD001 promotes glucose consumption by induction of GLUT expression. HepG2 (A), differentiated 3T3-L1 adipocytes (B), and differentiated C2C12 myotubes (C) were treated with vehicle, MD001 (10, 50 μM), or rosiglitazone (rosi, 10 μM) for 24 h; glucose consumption was examined as described in the Methods section. Cells were harvested for total RNA isolation. Relative expression levels of GLUT2 (D) and GLUT4 (E,F) were quantitated using qRT-PCR. *, **, and ^† vs. vehicle. Data represent the mean ± SD of three independent experiments. *P < 0.05, **P < 0.01, and ^†P < 0.01.
The glucose consumption assay was performed as previously described. Briefly, cells were treated with MD001 or rosiglitazone […]. The conditioned medium from cultured cells was harvested and assayed for glucose content using a Glucose Colorimetric Assay Kit II (BioVision Inc., Milpitas, CA, USA).

SMILES: Cc1c(O)cc(O)c2c(-c3ccccc3)c(C(=O)/C=C/c3ccccc3)c(=O)oc12 [MD001]
- glucose consumption: significantly increased glucose consumption in a dose-dependent manner
